Source: a melting point compilation (Tetko et al.; mined from patent text by program, amines drawn as free bases though some values may be those of a salt)
Starred links: 1 amine or outer side, 2 acyl side, 3 side chain; linkers in the order of their positions; H or OH if unused. Residues, ends and D or L forms follow the SMILES beside them. *: point of attachment. βAsp = O=C(O)[CH](CC(=O)[*:2])N[*:1]; Bz = O=C(c1ccccc1)*

`O=C(O)C(=NOc1ccccc1)c1ccccc1` showed a melting point of 105 °C. Work on `Fc1ccc(C#CC2=CCN(Cc3coc4ccccc34)CC2)cc1` yielded a melting point of 79 to 80 °C. Compound `CNC(=O)C(=NOC)c1ccccc1CO` has a melting point of 100 to 102 °C. With `O=C(Nc1cccc2[nH]ccc12)c1ccccc1OCC1CO1` (centres undefined) the melting point was 171 °C. For `CCN(CC)CCNC(=O)c1cc(Cl)c(N)cc1OCC(=O)c1cccs1`, the melting point was 135 to 139 °C. Work on `Nc1nc(CN2CCN(C(c3ccccc3)c3ccccc3)CC2)cs1` yielded a melting point of 156 to 160 °C. With `CN(C)C1CCc2c(c3ccccc3n2CC(=O)O)C1` (centres undefined) the melting point was 316 to 319 °C. `C=CCOc1ccccc1C1C=NNC(=O)C1` (centres undefined) showed a melting point of 93 to 95 °C. `O=P1(NCCCl)OCCCN1CCBr` (centres undefined) gave a melting point of 50 to 51 °C. For `COC(=O)Nc1nc2cc(S(=O)CC3CCCCC3)ccc2[nH]1` (centres undefined), the melting point was 272 to 274 °C. Work on `FC(F)(F)c1ccn(-c2cccnc2)n1` yielded a melting point of 59 to 61 °C. In the case of `COc1cc2ncnc(Nc3ccc(OCc4ccccn4)c(C)c3)c2cc1OCCN(C)C`, the melting point is reported as 125 to 126 °C. With `NNc1nc(Cl)nc2ccccc12` the melting point was over 280 °C. In the case of `C=C(CCCCCCCCCCCCCC)C(=O)O`, the melting point is reported as 49.5 to 50 °C. Compound `CC(C)(C)OC(=O)N(CC(=O)O)Cc1ccccc1` has a melting point of 94 to 97 °C. `OCc1cc(N2CCCCC2)c(Br)cn1` gave a melting point of 118 to 119 °C. `Cc1c(NC(=O)CC(C)(C)C)cc2c(c1C)OC(C)(C)C2(O)Cc1ccc(C(C)C)cc1` (centres undefined) showed a melting point of 177 to 178 °C. `CCOC(=O)c1cn(-c2ccc(F)cc2F)c2cc(F)c(F)c(C)c2c1=O` gave a melting point of 161 to 164 °C. In the case of `CCCC1=C(C)C(=O)c2oc(Cc3ccc(OC)cc3)c(C)c2C1=O`, the melting point is reported as 114 °C. Work on `CC1CN(c2ccc(S(N)(=O)=O)cc2)CC(C)N1CCC1OCCc2ccccc21` (centres undefined) yielded a melting point of 170 to 175 °C. Compound `O=c1cc(Cl)cc(Cl)o1` has a melting point of 43 to 45 °C. Compound `NN=c1cc(-c2c[nH]nc2-c2cccc(Cl)c2)cc[nH]1` has a melting point of 163 to 164 °C. Work on `N#CC(C(=O)Nc1ccc(F)cc1F)C(=O)c1ccc[nH]1` (centres undefined) yielded a melting point of 169 to 171 °C. `COC(=O)C=Cc1ccc(C=O)cc1` showed a melting point of 82 to 84 °C. Work on `CC(C)(C)c1cc(C(=O)Oc2ccc(Cl)c(N)c2)cc(C(C)(C)C)c1O` yielded a melting point of 64 to 66 °C. `N#Cc1ccc2c(c1)C(c1ncnc3nn(C4CCCCC4)cc13)C(=O)N2` (centres undefined) showed a melting point of over 325 °C. In the case of `O=C1NC(=O)c2ccc(-c3ccc(CN4CCCCC4)cc3)cc2C1=CNc1ccc(CN2CCCCC2)cc1`, the melting point is reported as 159 to 160 °C. In the case of `O=C(N(Cc1cccnc1)c1ccc(Cl)cc1)C(F)(F)F`, the melting point is reported as 80 to 81 °C. Work on `COC(=O)c1ccc2c(c1)C(=O)C(C=C1C=CC=C(C(=O)O)C1)O2` (centres undefined) yielded a melting point of 280 °C. `CC(C)(C)c1ccc(Nc2cccc3c2C(=O)N(C2CCC(=O)NC2=O)C3=O)cc1` (centres undefined) gave a melting point of 228 to 230 °C. Work on `O=C(CCS)N[C@@H](Cc1ccc(O)c(O)c1)C(=O)O` yielded a melting point of 89 to 91 °C. `COc1cc2cc(-c3ccccc3Cl)sc2c(Cl)c1Cl` showed a melting point of 170 to 171 °C. `CCNc1cc(-c2c[nH]c(C)n2)ccn1` gave a melting point of 214 to 216 °C. `CCOc1ccc(C(=O)Nc2ccccc2)cc1N` showed a melting point of 189 to 190 °C. For `CC(C)Oc1cccc(N2CC(=O)NC(=O)N2)c1`, the melting point was 170 to 172 °C. With `COc1ccc(COc2cc3c(cc2-c2cc(C=CC(=O)O)ccc2OC)C(C)(C)CCC3(C)C)cc1` the melting point was 201 to 203 °C. In the case of `CC(=NO)c1ccc2c(c1)CCC2`, the melting point is reported as 104 °C. For `Cc1oncc1-c1cccc(OC2SCC(O)C(O)C2O)c1` (centres undefined), the melting point was 180 °C. In the case of `C=C(C)C(=O)Nc1ccc(NC(=O)C(F)(F)C(F)(F)C(F)(F)F)c(O)c1`, the melting point is reported as 247 to 250 °C. For `Cc1nc2sc3ccccc3n2c1C(C)O` (centres undefined), the melting point was 173 to 174 °C. `O=C1c2ccccc2C(=O)N1CCCCC1N=NC(=S)N1` (centres undefined) gave a melting point of 223 to 225 °C. In the case of `Cc1ccc(S(=O)(=O)NC(=O)NCCc2ccc(-n3c(C(C)O)nc4cc(C(F)(F)F)c(Cl)cc43)cc2)cc1` (centres undefined), the melting point is reported as 220 °C. Work on `CC(=O)OCC1OC(n2cnc3c(NCC(c4ccccc4)c4ccccc4)nc(Cl)nc32)C(OC(C)=O)C1OC(C)=O` (centres undefined) yielded a melting point of 68 to 71 °C. In the case of `CCOc1ccc(-n2c(N)cc(=O)[nH]c2=S)cc1`, the melting point is reported as 222 to 225 °C. Work on `COC(=O)C1=C(C)NC(=O)NC1c1cccc(N)c1` (centres undefined) yielded a melting point of 222 to 234 °C. With `N#Cc1cn(-c2ccc(C(F)(F)F)cc2)c(=O)n(SC(Cl)(Cl)Cl)c1=O` the melting point was 167 to 168 °C. `O=C(Nc1cn(C2CCCCO2)nc1C(=O)NCCO)c1ccccn1` (centres undefined) showed a melting point of 214 to 215 °C. For `CC(NC(=O)CC(NC(=O)c1ccccc1)C(=O)O)C(=O)N1CCCC1C(=O)O` (stereo not drawn) ({Bz-βAsp}-Ala-Pro-OH; configuration not given here), the melting point was 110 °C. In the case of `COC(=O)c1ccc2oc(CCC=O)cc2c1`, the melting point is reported as 48 to 49 °C. Work on `COC(=O)c1nc(-c2cnco2)cc(N)c1Cl` yielded a melting point of 166 to 170 °C. Compound `CCOC(C)Oc1cnc(C(C)C)nc1O` (centres undefined) has a melting point of 70 °C. Compound `CC(C)(C)OC(=O)N1CCN(CCOc2cccc3c2c2cccc4c2n3C(c2ccccc2)CO4)CC1` (centres undefined) has a melting point of 72 °C. Work on `CC=Cc1ccccc1Oc1ccc(Oc2ccccc2C=CC)nn1` yielded a melting point of 165 to 168 °C. Compound `Cc1ccccc1COc1cccnc1NC(=N)Nc1ccccc1` has a melting point of 157 to 158 °C. `CCN(CC)c1ccc(C(O)C#Cc2ccc(C(=O)O)c(O)c2)cc1C(C)(C)C` (centres undefined) gave a melting point of 245 °C. Work on `Cc1nn(C)c(C(N)=O)c1[N+](=O)[O-]` yielded a melting point of 153 to 155 °C. `CCCc1nn(-c2ccc(C(F)(F)F)cn2)cc1CCCOc1cccc(OC(C)(C)C(=O)O)c1` gave a melting point of 99 to 100 °C. `COc1ccc(Cl)cc1NC(=NN)c1cc(C(F)(F)F)cc(C(F)(F)F)c1` gave a melting point of 117 to 120 °C. For `CC(NC(=O)c1cc(Cl)ccc1N)C1CC1` (centres undefined), the melting point was 135 °C. `CC(C)(C)OC(=O)c1ccc(C(=O)NS(=O)(=O)c2ccccc2)cc1` showed a melting point of 141 to 143 °C. For `COCC1(C)Oc2ccccc2C(n2ccccc2=O)C1O` (centres undefined), the melting point was 244 to 246 °C. In the case of `COc1ccc(CCC(=O)NNC(=O)c2ccc3ncsc3c2)cc1C(F)(F)F`, the melting point is reported as 208 to 209 °C. With `Nc1c(-c2cc(Cl)ccc2O)nnn1-c1ccc(Cl)cc1Cl` the melting point was 131 to 136 °C. In the case of `CNC(=O)CCc1c(-c2ccccc2)n(C)c(=O)c2ccccc12`, the melting point is reported as 185 to 186 °C. `COc1ccc(CNc2ncnc3c2ncn3C2OC(CN=[N+]=[N-])C(O)C2O)cc1` (centres undefined) showed a melting point of 191 °C. Work on `c1ccc2c(c1)C(=NOCCN1CCCCC1)c1ccccc1C1CC21` (centres undefined) yielded a melting point of 75 to 76 °C. With `CCCCN(CCCC)S(=O)(=O)NC(=O)Nc1c(C(C)C)cccc1C(C)C` the melting point was 98 to 101 °C. Work on `COC(=O)C1=C(C)NC(C)=C(C(=O)OCC2CCCO2)C1c1ccccc1Br` (centres undefined) yielded a melting point of 170 to 172 °C. In the case of `Cc1ccc(-c2ccc(CN3CCN(c4ccccc4)CC3)o2)cc1C`, the melting point is reported as 110 °C. `Cc1cc(-c2cccc3[nH]ccc23)nc(N)n1` gave a melting point of 242 to 244 °C. `CC(=O)c1cc(Cl)cc(Oc2ncccc2C(=O)NCc2ccc(C(C)(C)O)cc2Cl)c1` showed a melting point of 58 to 60 °C. `CC(=O)n1c(C)c(-c2ccc(F)cc2)c2cccnc21` showed a melting point of 84 to 87 °C. Compound `CN(C(=O)Nc1ccc(Cl)c(Cl)c1)S(C)(=O)=O` has a melting point of 140 °C. In the case of `Cn1c(=O)nc(-c2ccccc2)c2c3c(sc21)CCCC3`, the melting point is reported as 215 to 216 °C. For `O=C1c2ccccc2C(=O)N1OCCCN1CCN(c2ccc3ccccc3n2)CC1`, the melting point was 158 to 160 °C. `Cc1noc(NS(=O)(=O)c2ccsc2C(=O)Nc2ccccc2)c1C` showed a melting point of 176 °C. In the case of `O=C(O)c1ccc(OS(=O)(=O)C(F)(F)F)cc1`, the melting point is reported as 178 to 180 °C. Work on `O=C(O)C(O)COc1ccc(Cl)cc1` (centres undefined) yielded a melting point of 135 to 136 °C. Work on `O=c1[nH]c2ccc(C(F)(F)F)cc2c(-c2cc(Cl)ccc2O)c1Sc1ccc(O)cc1` yielded a melting point of 180 to 190 °C. In the case of `COc1cc(OC)c2c(=O)[nH]c(-c3ccc(OCCN4CCCC4)cc3)nc2c1`, the melting point is reported as 226 to 227 °C. Compound `NC(=O)c1cc2cc(C(O)(C(F)(F)F)C(F)(F)F)ccc2[nH]1` has a melting point of 262 to 263 °C. Work on `CC(=NNc1ccc(C2=NNC(=O)CC2C)cc1)c1cnsn1` (centres undefined) yielded a melting point of 241 to 245 °C. With `CN(C(=O)Nc1ccc(Cl)cc1)c1nnc(Br)s1` the melting point was 250 °C. `CC(CN1CCCC1)N1c2ccccc2Sc2ccc(C(=O)NC3CCCC3)cc21` (racemic) gave a melting point of 132 °C. With `Cc1ccc(S(=O)(=O)OC[C@H](O)CO)cc1` the melting point was 54 to 59 °C. In the case of `Cn1c(C=O)cnc1[N+](=O)[O-]`, the melting point is reported as 114 to 115 °C. `N#CC=Cc1ccc(CBr)cc1` gave a melting point of 105 to 107 °C. With `CCOCc1nc2c(N)nc(C)c(C)c2n1NCCCS(C)(=O)=O` the melting point was 150 to 155 °C. For `O=C(c1ccc(F)cc1)C1CCN(CCN2CNc3ccccc3C2=O)CC1`, the melting point was 203 °C. In the case of `CCOC(=O)c1sc(-c2ccc3c(=O)n(CC(C)C)c(CNC(=O)OCC4c5ccccc5-c5ccccc54)c(-c4ccccc4)c3c2)nc1C`, the melting point is reported as 157 to 158 °C. Compound `Cc1nc(=O)[nH]c2ccc(N(C)C)cc12` has a melting point of 278 to 281 °C. Compound `CC(C)OC(=O)C=Cc1cc([N+](=O)[O-])ccc1Cl` has a melting point of 74 to 75 °C. In the case of `Clc1ccc(Oc2ccc(Cl)nn2)cc1`, the melting point is reported as 119 °C. `NC(=O)CNC(=O)c1ccc(F)c(-c2ccc(F)c3cc(Cc4cc(F)cc(Cl)c4)sc23)c1` gave a melting point of 178 to 179 °C. For `CCCCNC(=O)C(Cc1ccccc1)NC(=O)Nc1n[nH]c(=S)s1` (centres undefined), the melting point was 177 to 179 °C. Work on `Cc1ccccc1NC(=O)/C=C/C=C/CC1CCc2c(cccc2C(F)(F)F)C1` (centres undefined) yielded a melting point of 171 °C. With `COC(=O)c1ccc(C)c(SC(=O)c2ccc3c(c2)C(C)(C)CCC3(C)C)c1` the melting point was 120 °C. Compound `O=CN(Cn1cc(Cl)cnc1=O)c1ccccc1` has a melting point of 200 °C. Work on `COC(=O)CCCc1cc2cc(Cl)ccc2n1S(=O)(=O)c1ccc(F)c([N+](=O)[O-])c1` yielded a melting point of 93 °C. `COC(=O)CCC(=O)c1ccc2c(c1)CNC(=O)N2C` gave a melting point of 165 to 175 °C. Compound `COc1cc(CBr)cc(OC)c1` has a melting point of 70 to 72 °C. In the case of `O=Cc1ccc(/C=C/c2ccncc2)cc1`, the melting point is reported as 116 to 117 °C. Work on `CC(=O)OC1C(C)OC(n2c(Br)nc3cc(Cl)c(Cl)cc32)C1OC(C)=O` (centres undefined) yielded a melting point of 145 to 148 °C. For `CCOCCn1c(N2CCCN(CCC3(c4ccncc4)CCN(C(=O)c4cc(OC)c(OC)c(OC)c4)C3)CC2)nc2ccccc21` (centres undefined), the melting point was 85 to 95 °C.
